Test [1] relates to A549. As to the kind of experiment: Antiproliferative activity against human A549 cells after 3 days by CCK8 assay. Format: functional. More on the design: concentration or dose not given beside the values. Background: Formazan colour is commonly taken as a measure of viable cells.
The target in test [2] is T1, Catenin beta-1 (Homo sapiens) (UniProt P35222).
T1 sequence (whole entry): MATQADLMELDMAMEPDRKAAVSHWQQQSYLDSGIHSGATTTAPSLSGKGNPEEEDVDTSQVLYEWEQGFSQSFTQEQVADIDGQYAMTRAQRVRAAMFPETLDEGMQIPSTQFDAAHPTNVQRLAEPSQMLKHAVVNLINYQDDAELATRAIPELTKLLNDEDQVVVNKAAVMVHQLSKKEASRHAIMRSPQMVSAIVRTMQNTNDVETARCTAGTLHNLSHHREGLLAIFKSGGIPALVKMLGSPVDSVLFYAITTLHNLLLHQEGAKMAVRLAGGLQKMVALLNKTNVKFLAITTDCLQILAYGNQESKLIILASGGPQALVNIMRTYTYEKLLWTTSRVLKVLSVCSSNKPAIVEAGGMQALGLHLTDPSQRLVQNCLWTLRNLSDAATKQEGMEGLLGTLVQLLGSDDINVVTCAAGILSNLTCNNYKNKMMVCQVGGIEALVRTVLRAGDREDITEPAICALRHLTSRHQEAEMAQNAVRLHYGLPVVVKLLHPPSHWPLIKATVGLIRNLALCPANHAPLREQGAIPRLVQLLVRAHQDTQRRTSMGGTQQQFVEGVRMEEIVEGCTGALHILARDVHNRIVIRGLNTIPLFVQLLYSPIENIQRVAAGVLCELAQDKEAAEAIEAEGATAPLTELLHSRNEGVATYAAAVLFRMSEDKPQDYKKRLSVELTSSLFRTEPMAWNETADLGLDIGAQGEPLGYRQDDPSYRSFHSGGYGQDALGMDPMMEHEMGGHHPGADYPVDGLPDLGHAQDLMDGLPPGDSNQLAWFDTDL
As to the kind of experiment: Inhibition of beta-catenin transcriptional activity in human A549 cells after 24 hrs by luciferase reporter assay. In kind it is cell-based. Details: concentration or dose not given beside the values.

Test [3] has as its system A549. Kind of test: Induction of apoptosis in human A549 cells assessed as dead cells at 3 uM after 3 days by annexin V staining-based flow cytometric analysis (reference value: 0.2%). In kind it is functional. (In general: Flow cytometry measures light scatter and fluorescence of single cells or particles in a stream.)
For test [4], the system named is A549. As to the kind of experiment: Induction of apoptosis in human A549 cells assessed as up regulation of phosphorylated p53 (S15) level at 3 uM incubated for 12 to 24 hrs by Western blot analysis. The following applies: TDE = time-dependent effect. Format: functional, cell-based. A general note: Immunoblotting shows a protein as a band on a membrane.
Test [5] has as its system A549. As to the kind of experiment: Induction of apoptosis in human A549 cells assessed as up regulation of phosphorylated p53 (S392) level at 3 uM incubated for 12 to 24 hrs by Western blot analysis. In kind it is functional, cell-based. Particulars: TDE = time-dependent effect.
The test system of test [6] is A549. As to the kind of experiment: Induction of apoptosis in human A549 cells assessed as live cells at 3 uM after 3 days by annexin V staining-based flow cytometric analysis (reference value: 98%). In kind it is functional.
Test [7] deals with A549. Kind of test: Induction of apoptosis in human A549 cells assessed as early apoptotic cells at 3 uM after 3 days by annexin V staining-based flow cytometric analysis (reference value: 1.3%). Format: functional.
Test [8] has as its system A549. As to the kind of experiment: Induction of apoptosis in human A549 cells at 3 uM by annexin V staining-based flow cytometric analysis. In kind it is functional, cell-based. The following applies: TDE = time-dependent effect.
Test [9] relates to A549. Kind of test: Induction of apoptosis in human A549 cells assessed as live cells at 3 uM after 2 days by annexin V staining-based flow cytometric analysis (reference value: 98%). Format: functional.
In test [10] the test system is A549. As to the kind of experiment: Induction of apoptosis in human A549 cells assessed as dead cells at 3 uM after 1 day by annexin V staining-based flow cytometric analysis (reference value: 0.2%). Format: functional.
In test [11] the test system is A549. As to the kind of experiment: Induction of apoptosis in human A549 cells assessed as early apoptotic cells at 3 uM after 2 days by annexin V staining-based flow cytometric analysis (reference value: 1.3%). Format: functional.
The subject of test [12] is A549. As to the kind of experiment: Induction of apoptosis in human A549 cells assessed as early apoptotic cells at 3 uM after 1 day by annexin V staining-based flow cytometric analysis (reference value: 1.3%). In kind it is functional.
Test [13] concerns A549. Kind of test: Induction of apoptosis in human A549 cells assessed as late apoptotic cells at 3 uM after 3 days by annexin V staining-based flow cytometric analysis (reference value: 0.5%). In kind it is functional.
Test [14] relates to A549. As to the kind of experiment: Induction of apoptosis in human A549 cells assessed as dead cells at 3 uM after 2 days by annexin V staining-based flow cytometric analysis (reference value: 0.2%). Format: functional.
Test [15] concerns A549. As to the kind of experiment: Induction of apoptosis in human A549 cells assessed as late apoptotic cells at 3 uM after 1 day by annexin V staining-based flow cytometric analysis (reference value: 0.5%). In kind it is functional.
In test [16] the test system is A549. Kind of test: Induction of apoptosis in human A549 cells assessed as up regulation of phosphorylated p53 (S46) level at 3 uM incubated for 12 to 24 hrs by Western blot analysis. In kind it is functional, cell-based. The following applies: TDE = time-dependent effect.
Test [17] concerns A549. As to the kind of experiment: Induction of apoptosis in human A549 cells assessed as late apoptotic cells at 3 uM after 2 days by annexin V staining-based flow cytometric analysis (reference value: 0.5%). In kind it is functional.
Test [18] concerns A549. As to the kind of experiment: Induction of apoptosis in human A549 cells assessed as live cells at 3 uM after 1 day by annexin V staining-based flow cytometric analysis (reference value: 98%). In kind it is functional.

For the molecule `CCOC(=O)c1c(N)c(C#N)cc2cccn12`, the Activity in the test with A549 [1] turned out to be 85.35%; in test [2], 47%.

As to `CCOC(=O)c1cc2cccn2c(C(=O)c2ccc(OC)cc2)c1N`, the Activity in the test with A549 [1] worked out at 98.46%; in [2], 86.4%.

As to `COc1ccc(C(=O)c2c(N)c(C#N)cc3cccn23)cc1`, the Activity is 0.95% in the test on A549 [3]; “tde” in the test on A549 [4]; “tde” with A549 [5]; 39.8% with A549 [6]; 15.6% with A549 [7]; “tde” in the test with A549 [8]. The Activity in the test on A549 [9] was 73.35%; in the test with A549 [10], 1.15%; in the test on A549 [11], 14.7%; with A549 [1], “Dose-dependent effect”; in the test with A549 [1] (record 2) it was 0%; with A549 [12], 8%. Also, the Activity with A549 [13] was 43.65%; in the test on A549 [14], 2.25%; in the test on A549 [15], 2.3%; in test [2], 7.03%; in the test on A549 [16], “tde”; with A549 [17], 9.7%. Also, the Activity with A549 [18] stood at 88.55%.

On to `O=C1CCCc2c1cc1cccn1c2C(=O)c1ccc(Cl)cc1`, for which the Activity turned out to be 47.73% in the test with A549 [1] and 64.5% in test [2].

Take `N#Cc1cc2cccn2c(C(=O)c2ccc(Cl)cc2)c1N`: the Activity is 2.87% with A549 [1] and 13.6% in [2].

`COc1ccc(C(=O)c2c3c(cc4cccn24)C(=O)CCC3)cc1`: the Activity was 51.36% with A549 [1] and 67.5% in [2].

Turning to `N#Cc1cc2cccn2c(C(=O)c2ccccc2)c1N`, the Activity with A549 [1] was determined as 13.75%; in [2] it was 26.2%.

On to `N#Cc1cc2cccn2c(C(=O)c2ccc(OCc3ccccc3)cc2)c1N`, for which the Activity is 35.05% in the test with A549 [1] and 69.1% in test [2].

Take `N#Cc1cc2cccn2c(C(=O)c2ccc(F)cc2)c1N`: the results for the Activity (with A549 [1]; in [2]) were 1.51% and 22.2%, respectively.

Turning to `O=C1CCCc2c1cc1cccn1c2C(=O)c1ccccc1`, the values for the Activity (in the test on A549 [1]; in test [2]) were 55.44% and 67.3%, respectively.

Take `Cc1c(C(=O)O)cc2cccn2c1C(=O)c1ccccc1`: the figures for the Activity (in the test on A549 [1]; in test [2]) were 101.93% and 79.1%, respectively.

`CC(=O)c1cc2cccn2c(C(=O)c2ccccc2)c1C`: the figures for the Activity (in the test with A549 [1]; in [2]) were 92.02% and 90.3%, respectively.

On to `CC(=O)c1cc2cccn2c(C(=O)c2ccc(Cl)cc2)c1C`, for which the Activity turned out to be 79.46% with A549 [1] and 52.9% in test [2].

For the molecule `O=C1CCCc2c1cc1cccn1c2C(=O)c1ccc(F)cc1`, the Activity in the test with A549 [1] is 40.94%; in test [2] it was 66.2%.

The values are drawn from ChEMBL document CHEMBL3745615, “Synthesis, characterization and biological evaluation of anti-cancer indolizine derivatives via inhibiting β-catenin activity and activating p53” (2016).
